# Assay results reported in article PMC11859264, “Discovery of a Novel Multitarget Analgesic Through an In Vivo-Guided Approach” (Pharmaceuticals, 2025).
# What was measured:
# [1] = test system: spinal nerve ligation (SNL) model; assay: Spinal nerve ligation (SNL) neuropathic pain model, von Frey paw withdrawal threshold; type: in vivo; settings: SNL rats; for maximum possible effect (MPE), withdrawal threshold: 3 h after administration
# From the text: The SNL model, also known as the Chung model, is a widely used animal model for studying neuropathic pain, a chronic pain condition resulting from nervous system damage. This model replicates human neuropathic pain, which can stem from nerve injuries due to conditions like diabetes, shingles, or spinal cord injury. In the SNL model, the L5 or L6 spinal nerve is surgically ligated to induce nerve injury, leading to the development of long-lasting neuropathic pain symptoms in the animal. Following the nerve injury, animals display pain-related behaviors that mirror those seen in human neuropathic pain conditions, such as allodynia and hyperalgesia. Behavioral assessments conducted 14 days after surgery evaluate the animal’s sensitivity to mechanical stimuli using Von Frey filaments to quantify pain responses and measure mechanical allodynia.
# In this experiment, compound 29 was administered intraperitoneally at two different doses, 50 and 100 mg/kg, and its analgesic effects were assessed by measuring the 50% withdrawal threshold at multiple time points (1, 3, and 5 h post-administration) (Figure 3A). […]
# Spinal nerve ligation (SNL) was performed following the method described by Kim and Chung. […] Following the surgery, the rats were returned to their cages and monitored during recovery.
# Behavioral signs indicative of neuropathic pain (mechanical allodynia) were assessed in all rats for two weeks postoperatively. The paw withdrawal threshold (PWT) was measured using von Frey filaments (Stoelting, Wood Dale, IL, USA) and the up–down method. […] A brisk withdrawal or paw flinching was recorded as a positive response. […]
# Figure 3 Antinociceptive effect of compound 29 on mechanical allodynia in SNL model rats. (A) The mechanical allodynia was induced by spinal nerve ligation and evaluated by measuring paw withdrawal thresholds in response to von Frey filament stimuli. […] The MPE was calculated using the following formula: MPE (%) = [(post-treated value − pre-treatment threshold) × 100]/(maximum possible threshold − pre-treatment threshold). Data are expressed as mean ± SEM. […]
# [2] = target: T1, Transporter, Dopamine (DAT) (Homo sapiens, UniProt Q01959); assay: Radioligand binding, [125I] RTI-55, Eurofins
# T1 construct: host or cells: CHO-S cells
# T1 sequence (Q01959 whole entry): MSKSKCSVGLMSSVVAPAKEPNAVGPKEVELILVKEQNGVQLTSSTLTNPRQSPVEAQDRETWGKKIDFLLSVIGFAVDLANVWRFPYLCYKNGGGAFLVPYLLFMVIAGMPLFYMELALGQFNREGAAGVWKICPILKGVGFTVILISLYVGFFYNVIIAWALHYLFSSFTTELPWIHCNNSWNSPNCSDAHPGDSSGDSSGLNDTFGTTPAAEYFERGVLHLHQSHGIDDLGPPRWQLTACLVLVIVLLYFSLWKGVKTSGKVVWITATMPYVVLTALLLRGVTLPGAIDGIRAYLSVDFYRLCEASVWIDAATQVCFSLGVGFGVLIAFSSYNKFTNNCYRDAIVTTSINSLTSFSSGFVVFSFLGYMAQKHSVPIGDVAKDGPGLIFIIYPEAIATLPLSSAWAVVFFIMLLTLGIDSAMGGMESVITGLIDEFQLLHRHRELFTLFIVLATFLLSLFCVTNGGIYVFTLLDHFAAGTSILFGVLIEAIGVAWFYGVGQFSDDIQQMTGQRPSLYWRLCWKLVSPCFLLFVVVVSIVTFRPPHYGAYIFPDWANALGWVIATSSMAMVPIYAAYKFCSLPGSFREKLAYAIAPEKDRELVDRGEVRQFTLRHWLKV
compound,measurement,setting,value
"N#Cc1ccc2[nH]cc(C(=O)NCCN3CCN(c4ccc5ccccc5n4)CC3)c2c1 [Compound 29, 5-Cyano-N-(2-(4-(quinolin-2-yl)piperazin-1-yl)ethyl)-1H-indole-3-carboxamide]","maximum possible effect (MPE), withdrawal threshold",[1]; 50 mg/kg intraperitoneal,24%
same,"maximum possible effect (MPE), withdrawal threshold",[1]; 100 mg/kg intraperitoneal,45%
same,time of most pronounced analgesic effect (Tmax),[1]; 50 and 100 mg/kg intraperitoneal,3 h
same,nH (Hill coefficient),[2]; DAT,0.88
same,Ki,"[2]; DAT, Cheng and Prusoff",46 nM
same,IC50,"[2]; DAT, human recombinant CHO-S cells",57 nM
same,times more potent at DAT compared to vanoxerine,[2]; ratio of Ki values,19
